Reference: patent publication US20210333284A1, “METHODS AND MATERIALS FOR LARGE-SCALE ASSESSMENT OF LIGAND BINDING SELECTIVITY OF G-QUADRUPLEX RECOGNITION USING CUSTOM G4 MICROARRAYS” (Purdue Research Foundation, priority 2020, published 2021)

B1: PIF1: GST-tagged human PIF1 helicase (protein, listed as Homo sapiens)
chain: MLSGIEAAAGEYEDSELRCRVAVEELSPGGQPRRRQALRTAELSLGRNERRELMLRLQAPGPAGRPRCFPLRAARLFTRFAEAGRSTLRLPAHDTPGAGAVQLLLSDCPPDRLRRFLRTLRLKLAAAPGPGPASARAQLLGPRPRDFVTISPVQPEERRLRAATRVPDTTLVKRPVEPQAGAEPSTEAPRWPLPVKRLSLPSTKPQLSEEQAAVLRAVLKGQSIFFTGSAGTGKSYLLKRILGSLPPTGTVATASTGVAACHIGGTTLHAFAGIGSGQAPLAQCVALAQRPGVRQGWLNCQRLVIDEISMVEADLFDKLEAVARAVRQQNKPFGGIQLIICGDFLQLPPVTKGSQPPRFCFQSKSWKRCVPVTLELTKVWRQADQTFISLLQAVRLGRCSDEVTRQLQATASHKVGRDGIVATRLCTHQDDVALTNERRLQELPGKVHRFEAMDSNPELASTLDAQCPVSQLLQLKLGAQVMLVKNLSVSRGLVNGARGVVVGFEAEGRGLPQVRFLCGVTEVIHADRWTVQATGGQLLSRQQLPLQLAWAMSIHKSQGMTLDCVEISLGRVFASGQAYVALSRARSLQGLRVLDFDPMAVRCDPRVLHFYATLRRGRSLSLESPDDDEAASDQENMDPIL
modifications: GST tag
notes: GST-tagged human PIF1 helicase

What was measured:
[1] = tested on: G4 sequences and non-G4 ssDNA controls on Design 3 microarray; assay: Custom G4 DNA microarray, direct binding by fluorescence intensity; design: species or system human
From the text: Three Agilent DNA microarrays (TABLE 1) were designed, each with four identical sectors that contain ca.177,440 ssDNA 60-mers to examine G4-binding specificity. Arrays were designed with 9-73 replicates of each unique sequence to ensure statistical significance (TABLE 1). Each microarray contains different sets of G4 variants designed to examine several sequence parameters that affect G4 formation and binding specificity such as loop length (Design 1), loop sequence (Design 2), tail sequence (Design 2), and single nucleotide variants of six known G4s (Design 3). All microarrays include a set of 19 sequences from human telomeres and oncogene promoters known to form G4s with various topologies as positive controls (TABLE 2). Designs 2 and 3 have a set of 295 additional G4-forming sequences from the literature.^30 For the loop length variants, the length of the tails and loops of four different MYC G4 sequences (MYC Pu27, MYC Pu18ntd, MYC Pu22, and MYC Pu22 NMR mutant) was increased up to five times their length. Loop and tail sequences were varied using A, T, G, and C polynucleotide stretches and a subset of combinations. For the loop sequence variants, 4,096 sequences of the form NGGGNGGGNNGGGNGGGN (SEQ ID NO: 2) and 64 variants of the form GGGNGGGNGGGNGGG (SEQ ID NO: 1) were generated. For the tail variants, 256 versions of the major MYC G4 with all possible dinucleotide tails ([…] (SEQ ID NO: 3)) were generated. […]
The binding specificities of several molecules were evaluated. […] Binding of each molecule is measured by detection of fluorescence intensity at each of the microarray features. […] Cellular proteins were expressed as chimeric proteins containing GST, and binding for these proteins was detected using an anti-GST antibody conjugated with Cy5 (Materials and Methods). […] For Cy5-PDS, robust binding is observed at 1 μM, with fluorescence intensities ranging over 100-fold between strongest and weakest bound DNA features. The fluorescence-binding intensities of Cy5-PDS are proportional to the concentration of pyridostatin used). […]

[2] = tested on: genomic G4 sequences (folded G4 structures); assay: G4 microarray binding in potassium vs lithium; design: species or system human; settings: GST-tagged proteins
Protocol: The binding specificities of several molecules were evaluated. Microarrays were preincubated with 100 mM potassium chloride to induce G4 formation. Binding of each molecule is measured by detection of fluorescence intensity at each of the microarray features. BG4 and pyridostatin were conjugated with Cy5. Cellular proteins were expressed as chimeric proteins containing GST, and binding for these proteins was detected using an anti-GST antibody conjugated with Cy5 (Materials and Methods). G4 Structures Fold on DNA Microarrays. To evaluate the utility of DNA microarrays to examine G4-binding specificity, a Cy5-labeled pyridostatin (Cy5-PDS), a small molecule known to bind broadly to G4 structures, was synthesized.^13 A Cy5 conjugated version of BG4 (Cy5-BG4), an antibody developed to bind G4s, was also obtained.^31 FIG. 1A, B presents replicate binding intensities to 15,491 DNA sequences on the Design 3 microarray using either Cy5-PDS or Cy5-BG4. For Cy5-PDS, robust binding is observed at 1 μM, with fluorescence intensities ranging over 100-fold between strongest and weakest bound DNA features. The fluorescence-binding intensities of Cy5-PDS are proportional to the concentration of pyridostatin used). […] Antibody binding to non-G4 features increases with higher concentrations, and in some cases non-G4 sequences are more strongly bound by Cy5-BG4 than G4 sequences, including multiple cytosine-rich negative control sequences. Inhibition of G4 Formation Inhibits Cy5-PDS and Cy5-BG4 Binding. Cy5-PDS and Cy5-BG4 binding under conditions that inhibit G4 formation was examined to evaluate if G4 structures form on the microarray and are required for binding. […] It is noted that many sequences, in addition to the oncogene G4 sequences, are capable of forming G4s. […] For Cy5-BG4, the decrease in binding was up to 270-fold for genomic G4 sequences, while binding to negative controls decreased up to 23-fold (FIG. 1D,). In a second experiment, Cy5-PDS binding following a primer extension reaction that produces dsDNA^24 was examined (see Materials and Methods), anticipating that dsDNA would predominate over G4 formation^13. […] 2,27,28
(§1) Microarrays were preincubated with a 100 mM potassium chloride solution for 1 h at RT to induce G4 formation. Protein binding microarray experiments were then performed as previously described.^23 Microarrays were blocked with 4% nonfat dry milk in a potassium phosphate buffer before incubation with proteins or small molecules. Expressed proteins were blocked with 4% nonfat dry milk, ssDNA, and BSA. For the validation experiments, microarrays were also treated with 100 mM lithium chloride to inhibit G4 formation. For experiments examining dsDNA, single-stranded DNA probes were made double-stranded using a primer complementary to a 24-mer constant sequence following the method described previously.^23,24 Double stranding efficiency was monitored using 4% Cy3-dCTP.
Protein or molecule-bound microarrays were scanned with the G5761A SureScan Dx Microarray Scanner System (Agilent) to detect a Cy5 signal at two laser settings (30 and 100 PMT) to ensure signal intensities were below saturation. Spot intensities from microarray images were extracted using the Agilent Feature Extraction Software and are reported as raw fluorescence units. All binding assays were performed at least twice, with high agreement between replicates (R>0.8). Microarrays with the fewest number of saturated spots were used for further analysis. Median intensity was then computed for probes containing identical sequence on each microarray. […]

[3] = tested on: G4 sequences on custom G4 microarray; assay: G4 microarray competition of unlabeled molecule with Cy5-PDS; format: binding, human
From the text: Whether the microarray platform could be used to reveal the G4-binding specificity of unlabeled molecules via a competition with Cy5-PDS binding was explored. Three example molecules, unlabeled PDS, TMPyP4 (a planar molecule that nonspecifically binds G4 structures^14), and DC-34 (a molecule that selectively binds the MYC G4^15) were examined. […] The binding of unlabeled DC-34 was examined (FIG. 4). There appear to be no features that are better-bound in the presence of DC-34. […] This is consistent with the observation that DC-34 binds the top and bottom surfaces of the G4 and makes specific contacts with purines in the tail sequences.^15 The general properties of features in which DC-34 reduced binding of Cy5-PDS (ratio of PDS/PDS+DC-34) were also examined.
as §1
(§2) Protein or molecule-bound microarrays were scanned with the G5761A SureScan Dx Microarray Scanner System (Agilent) to detect a Cy5 signal at two laser settings (30 and 100 PMT) to ensure signal intensities were below saturation. Spot intensities from microarray images were extracted using the Agilent Feature Extraction Software and are reported as raw fluorescence units. All binding assays were performed at least twice, with high agreement between replicates (R>0.8). Microarrays with the fewest number of saturated spots were used for further analysis. […] The measured array data (Design 3, PDS) and predictions were normalized using the following
Custom G4 microarrays have been designed that contain a total of 19,249 G4 DNA sequences [31, the entirety of disclosure of which, including the supplemental information, is incorporated herein by reference]. […] After washing to remove the unbound Cy5-PDS and BMVC, the fluorescence intensities of Cy5-PDS bound to DNA oligonucleotides were detected using a fluorescence scanner. The binding selectivity of BMVC to different G4 structures was assessed by measuring the relative fluorescence intensity reduction of Cy5-PDS as BMVC concentration increased. […]

[4] = tested on: human telomeric G4s; assay: G4 microarray direct binding to telomeric G4s; settings: GST-tagged helicases
Protocol: as §1
as §2, with “units.” for “units. All binding assays were performed at least twice, with high agreement between replicates (R>0.8). Microarrays with the fewest number of saturated spots were used for further analysis.”
DNA Microarray Binding Experiments DNA microarray experiments were performed and analyzed as described previously. […]

Molecule	effect of lithium chloride (inhibiting G4 formation) on protein binding [2]	binding to hTelomeric (hyb-2 G4) and hTelomeric1 (hyb-1 G4) sequences [4]	further results
IGF2: GST-tagged human insulin-like growth factor II, full length ORF	weakened binding		binding specificity, G4 vs non-G4 ssDNA sequences [1]: bind only G4 sequences
NCCOc1cc(C(=O)Nc2cc(OCCN)c3ccccc3n2)nc(C(=O)Nc2cc(OCCN)c3ccccc3n2)c1 [pyridostatin]			effect of unlabeled competitor on Cy5-PDS binding ([3]; 1 μM Cy5-PDS, various concentrations of unlabeled competitor): no change in binding specificity; binding selectivity profile to different G4 sequences ([3]; 1 μM unlabeled ligand and 1 μM Cy5-PDS): bind less selectively
WRN: GST-tagged human Werner syndrome RecQ like helicase	weakened binding	can bind both hTelomeric (hyb-2 G4) and hTelomeric1 (hyb-1 G4) sequences	
BLM: GST-tagged human Bloom's syndrome protein helicase	weakened binding	specifically binds the wt hTelomeric sequence that forms hyb-2 G4	
CNBP: GST-tagged human cellular nucleic acid binding protein	does not inhibit DNA binding		
B1	does not inhibit DNA binding		
